Results: publication PMC12242654, “Design, Synthesis, and In Vitro Evaluation of the Leishmanicidal Activity of New Aromatic Symmetrical 1,4-Disubstituted 1,2,3-Bistriazoles” (ACS Omega, 2025)
Where two headings read alike, the source gives them in different places.

Columns and labels:
[1] = Murine cytotoxicity by MTT method; assay type: cell-based; details: mouse; murine peritoneal macrophages, MTT; read-out: murine macrophage CC50 ± SD
Procedure: (§1) Murine cytotoxicity was assessed by the 3-(4,5-dimethylthiazol-2-yl)-2,5-diphenyltetrazolium bromide (MTT) method using murine peritoneal macrophages to determine the CC50. For this purpose, murine peritoneal macrophages were maintained in RPMI 1640 medium at 37 °C and 5% CO2, arranged in 96-well plates at a ratio of […], where the compounds to be evaluated were added at concentrations of 500, 250, 125, 62.5, 31.25, 15.625, 7.8125, and 3.90 μg mL^–1 and incubated for 24, 48, and 72 h. After incubation, 10 μL of MTT (at a concentration of 5 mg mL^–1) was added per well, with a further 4 h incubation. The cells were lysed with dimethyl sulfoxide (DMSO) and evaluated in a Shimadzu UV/vis spectrophotometer (double beam, model 2550) at 570 nm to determine the CC50 compared to the control without the addition of compounds or drugs. , The optical density obtained was then converted to the percentage of inhibition using eq so that the CC50 could then be determined by regression analysis of the data. %inhibition=[(DOcontrol−DOcompound)/DOcontrol]×100 1
(§2) The percentage of viable cells was calculated considering the cell culture control (medium + cells + DMSO = 0.6% v/v).

[2] = test system: promastigote forms of L. amazonensis; assay: Leishmanicidal activity against promastigote forms of L. amazonensis (resazurin); assay type: cell-based, Leishmania amazonensis; details: L. amazonensis promastigotes, 72 h, read-out: IC50 ± SD promastigote
Procedure: Promastigotes of L. amazonensis (MHOM/BR/71973/M2269) were grown on 24-well plates in Schneider’s Drosophila medium (Sigma, USA) supplemented with 10.0% (v/v) heat-inactivated fetal bovine serum and 1.0% penicillin (10000 UI mL^–1)/streptomycin (10.0 mg mL^–1) (Sigma, USA). Cells were harvested in the log phase, suspended in a fresh medium, counted in Neubauer’s chamber, and adjusted to a concentration of 1 × 10^6 cells mL^–1 using 24-well plates. The compounds were added to promastigote cultures (1 × 10^6 cells mL^–1) in the range of 0.10–40.00 μg mL^–1, solubilized in dimethyl sulfoxide (DMSO) (0.6%, v/v in all wells), and incubated at 25 °C. After 72 h of incubation, resazurin was used to detect cellular metabolic activity for the determination of 50.0% inhibitory growth concentration (IC50-promastigote). All tests were performed in triplicate at three different times, and amphotericin B (Sigma) was used as the reference drug.

[3] = test system: amastigote forms of L. amazonensis; assay: Leishmanicidal activity against intracellular amastigote forms of L. amazonensis in murine peritoneal macrophages; assay type: cell-based; details: Leishmania amazonensis, Peritoneal macrophage; intracellular amastigotes in murine peritoneal macrophages, 72 h, Giemsa; read-out: IC50 ± SD amastigote
Procedure: To evaluate the leishmanicidal activity in amastigotes, murine peritoneal macrophages were used and maintained in RPMI-1640 medium at 37 °C and 5% CO2 in 24-well plates. After 24 h, the nonadherent macrophages were removed, and these cells were infected with Leishmania (L.) amazonensis promastigotes in the stationary phase of the proliferation curve at a ratio of 10:1. The day after infection, the noninternalized parasites were removed, and the compounds to be evaluated were added at concentrations of 40, 10, 5, and 0.1 μg mL^–1 and incubated for 72 h at 37 °C and 5% CO2; they were then fixed in methanol and stained with 10% Giemsa (MERCK) for subsequent analysis by light microscopy. To assess the effect of the compounds, the number of amastigotes/macrophages and the number of infected macrophages were evaluated. The percentage of infected cells was considered to illustrate the results since these are expressed as CI50-amastigote. ,

[4] = Cytotoxicity on human fibroblast culture (sulforodamine B (SRB) test); assay type: cell-based; details: read-out: human fibroblasts CC50 ± SD
[5] = test system: murine peritoneal macrophages; assay: Murine cytotoxicity by MTT method; assay type: cell-based
Procedure: as §1, §2

Row | Compound | CC50 [1] [µM] | IC50 ([2]; Leishmania amazonensis) [µM] | IC50 [3] [µM] | CC50 [4] [µM] | CC50 [5] [µM] | IC50 [2] [µM]
1 | OC(Cn1cc(C(=NNc2nc3ccccc3s2)c2ccccc2)nn1)Cn1cc(C(=NNc2nc3ccccc3s2)c2ccccc2)nn1 (centres unmarked) [12c, 1,3-Bis(4-((2-(benzo[d]thiazol-2-yl)hydrazineylidene)(phenyl)methyl)-1H-1,2,3-triazol-1-yl)propan-2-ol] | 51.3 ± 8.57 | 19.2 ± 1.4 |  |  |  | 
2 | O=[N+]([O-])c1ccc(-c2cn(CC(O)Cn3cc(-c4ccc([N+](=O)[O-])cc4)nn3)nn2)cc1 [8b, 1,3-Bis(4-(4-nitrophenyl)-1H-1,2,3-triazol-1-yl)propan-2-ol] | 305 ± 7.84 | 48.4 ± 1.3 |  |  |  | 
3 | C[C@@H]1[C@H](O)[C@@H](C)/C=C/C=C/C=C/C=C/C=C/C=C/C=C/[C@H](O[C@@H]2O[C@H](C)[C@@H](O)[C@H](N)[C@@H]2O)C[C@@H]2O[C@](O)(C[C@@H](O)C[C@@H](O)[C@H](O)CC[C@@H](O)C[C@@H](O)CC(=O)O[C@H]1C)C[C@H](O)[C@H]2C(=O)O [amph B, amphotericin B, reference compound] | 27.1 ± 3.19 | 1.4 ± 0.04 | 1.9 ± 0.07 | 22.95 ± 0.1 |  | 
4 | OC(Cn1cc(C(O)c2ccccc2)nn1)Cn1cc(C(O)c2ccccc2)nn1 (centres unmarked) [compound 9, ((2-Hydroxypropane-1,3-diyl)bis(1H-1,2,3-triazole-1,4-diyl))bis(phenylmethanol)] | 144.3 ± 0.94 | 62.3 ± 3.29 |  |  |  | 
5 | OC(c1ccccc1)c1cn(Cc2ccccc2)nn1 (centres unmarked) [compound 4] | 322 ± 10.4 | 42.8 ± 2.66 |  |  |  | 
6 | N′,N‴-(((2-Hydroxypropane-1,3-diyl)bis(1H-1,2,3-triazole-1,4-diyl))bis(phenylmethaneylylidene))di(benzohydrazide) [12b] |  |  |  |  | 118 ± 17.1 | 34.46 ± 0.28
7 | Cc1ccc(-c2cn(CC(O)Cn3cc(-c4ccc(C)cc4)nn3)nn2)cc1 [8c, 1,3-Bis(4-(p-tolyl)-1H-1,2,3-triazol-1-yl)propan-2-ol] | 282.2 ± 1.65 | 116 ± 2.61 |  |  |  | 
8 | O=C(c1ccccc1)c1cn(CC(O)Cn2cc(C(=O)c3ccccc3)nn2)nn1 [compound 10, ((2-Hydroxypropane-1,3-diyl)bis(1H-1,2,3-triazole-1,4-diyl))bis(phenylmethanone)] | 383.9 ± 3.21 | 44.1 ± 2.36 | 68.4 ± 2.61 | 568.1 ± 2.58 |  | 
